Values belong to the molecule of their own block, whether it stands above or below them.
What was measured:
guinea-pig = test: bronchoconstriction test, Konzett-Rossler guinea-pig model, U46619 induced; format: in vivo; conditions: for reduction (inhibition) of bronchoconstriction: 0.5 mg./kg. p.o., 2.5 hours after administration, guinea-pig, U46619 i.v.
Procedure: (c) a bronchoconstriction test involving measuring the inhibition by a test compound of the bronchoconstriction induced in the Konzett-Rossler guinea-pig model (as modified by Collier and James, Brit. J. Pharmacol., 1967, 30, 283-307) by intravenous administration of the TXA2 mimetic agent, U46619 at 1-1.9 μg/kg.

dog platelets = test: ex vivo U46619 induced blood platelet aggregation after oral dosing, dogs; format: in vivo; conditions: for inhibition of U46619 induced aggregation: 12 hours after oral administration to dogs at 2.5 mg./kg.
Excerpt: (§1) (e) For example in the rabbit, arterial blood samples are taken by standard techniques into 3.8% w/v solution of trisodium citrate as anti-coagulant (1 part citrate: 9 parts blood) and then centrifuged first at 150 g, and then at 1000 g, to prepare platelet rich and platelet poor plasma fractions. These fractions are then used to calibrate an instrument for measuring light transmittance and thus the amount of platelet aggregation. The extent of platelet aggregation following addition of the TXA2 mimetic agent U46619 (final concentrations 0.2-2.2 μg./ml.) to the platelet rich plasma fraction is then determined, and the value of maximum aggregation in response to each concentration of U46619 is recorded. The test animals are then dosed orally with the test compound, and arterial blood samples are withdrawn at intervals after dosing. The platelet rich plasma fraction is prepared and U46619 added as above, and the extent of aggregation assessed by measuring the light transmittance of the sample. This value is compared with that obtained from the same animal before dosing, so that a measure of the extent of inhibition of U46619 induced blood platelet aggregation is obtained.
A similar procedure is used in rats and guinea pigs except that blood samples are not taken prior to dosing but a control value is obtained from a group of undosed animals. When the aggregation of dog platelets is being studied, it is necessary to use a predetermined, threshold concentration of the platelet aggregant adenosine diphosphate (about 0.4-1.2×10^-6 M) together with the TXA2 mimetic agent, U46619.

[1] = tested on: Male rats (Alderley Park strain); test: U46619 induced hypertensive effect in anaesthetised rats; format: in vivo, rat
Procedure: (d) Male rats (Alderley Park strain) are anaesthetised with sodium pentobarbital and blood pressure is monitored at the carotid artery. The TXA2 mimetic agent known as U46619 is administered intravenously via the jugular vein and an ED50 (dose necessary to produce 50% of the maximum hypertensive effect) is established (n=3). The ED50 for U46619 is approximately 5 μg/kg. The test compound is then administered either intravenously via the jugular vein or orally via a cannula directly into the stomach and the animal challenged with an ED50 dose of U46619, five minutes after dosing with test compound and then successively every ten minutes until the hypertensive effect of U46619 is no longer blocked.

blood platelets = test: ex vivo U46619 induced blood platelet aggregation after oral dosing, rats; format: in vivo, rat; conditions: 6.5 hours after oral administration to rats at 10 mg./kg.
Excerpt: as §1
A similar procedure is used in rats and guinea pigs except that blood samples are not taken prior to dosing but a control value is obtained from a group of undosed animals. […]

[2] = tested on: citrated, platelet rich, human plasma; test: blood platelet aggregation test, U46619 induced aggregation of platelet rich plasma; format: cell-based; conditions: inhibition of aggregation of human platelet rich plasma induced by U46619 (50-250 ng/ml)
Procedure: (b) a blood platelet aggregation test based on that described by Born (Nature, 1962, 194, 927-929) and involving measuring the inhibition by a test compound of aggregation of citrated, platelet rich, human plasma induced by a sub-maximal concentration (in the range 50-250 ng/ml.) of U46619; and […]

Compound: CC1(C)OC[C@@H](C/C=C\CCCC(=O)O)[C@@H](c2ccccc2O)O1 (relative stereo) [P, 5(Z)-7-(4-o-hydroxyphenyl-2,2-dimethyl-1,3-dioxan-cis-5-yl)heptenoic acid]
reduction (inhibition) of bronchoconstriction (guinea-pig): 57%
inhibition of U46619 induced aggregation (dog platelets): 15%
maximal inhibition of platelet aggregation (dog platelets; some 3 hours after an oral dose of 2.5 mg./kg. in dogs): 93%

Compound: O=C(O)CCC/C=C\C[C@@H]1CO[C@H](C(F)(F)F)O[C@@H]1c1ccccc1 (relative stereo) [Q, 5(Z)-7-([2,4,5-cis]-4-phenyl-2-trifluoromethyl-1,3-dioxan-5-yl)heptenoic acid]
reduction (inhibition) of bronchoconstriction (guinea-pig): no significant inhibition
maximal inhibition of platelet aggregation (dog platelets; some 4 hours after an oral dose of 75 mg./kg. in dogs): 23%

IC50 [2]: 7.78 ± 1.6 ng/mL
Compound: O=C(O)CCC/C=C\C[C@@H]1CO[C@H](C(F)(F)F)O[C@@H]1c1ccccc1O (relative stereo) [formula I, 5(Z)-7-([2,4,5-cis]-4-o-hydroxyphenyl-2-trifluoromethyl-1,3-dioxan-5-yl)heptenoic acid]
inhibition of bronchoconstriction (guinea-pig; 0.5 mg./kg. oral, 3 hours after dosing (as restated)): ~95%
reduction (inhibition) of bronchoconstriction (guinea-pig): ~95%
inhibition of U46619 induced aggregation (dog platelets): 95%
inhibition of U46619 induced platelet aggregation (in words) (dog platelets; for up to 12 hours following an oral dose of 2.5 mg./kg. in dogs): essentially complete inhibition
protection from blood pressure rise induced by U46619 ([1]; 3 hours after oral administration at 5 mg./kg., rats): essentially complete protection
inhibition of U46619 induced aggregation (blood platelets): 90%

Compound: CCCCC[C@H](O)/C=C/[C@@H]1[C@@H](C/C=C\CCCC(=O)O)[C@H]2CO[C@@H]1C2 [Example U46619]
ED50 ([1]; Rattus norvegicus, iv, U46619 intravenously via the jugular vein, anaesthetised rats, n=3, read-out: ED50 (dose necessary to produce 50% of the maximum hypertensive effect)): ~5 µg/kg

Source: patent US4803220A, “Pharmaceutical agents” (Imperial Chemical Industries PLC, priority 1984, dated 1989)
